Laboratory results from paper PMC8557474, “Reliability of the AR-CALUX®In Vitro Method Used to Detect Chemicals with (Anti)Androgen Activity: Results of an International Ring Trial” (Toxicological Sciences, 2021).
In brackets after ≈: the same amount, converted by molar mass. Read-outs that look alike come from different tables or passages of the source.

Tests used:
[1] = test system: androgen receptor; conditions: ref OECD, 2020b; cited from earlier work
[2] = test system: androgen receptor; design: method as in Park et al., 2021; conditions: ref Park et al., 2021; cited from earlier work
[3] = target: T1, human androgen receptor (hAR) (Homo sapiens, UniProt P10275); experiment: cell-based; format: cell-based
T1 construct: host or cells: U2-OS human osteosarcoma cells (ATCC HTB 96), stably transfected (AR-CALUX cell line)
T1 sequence (P10275 1-920): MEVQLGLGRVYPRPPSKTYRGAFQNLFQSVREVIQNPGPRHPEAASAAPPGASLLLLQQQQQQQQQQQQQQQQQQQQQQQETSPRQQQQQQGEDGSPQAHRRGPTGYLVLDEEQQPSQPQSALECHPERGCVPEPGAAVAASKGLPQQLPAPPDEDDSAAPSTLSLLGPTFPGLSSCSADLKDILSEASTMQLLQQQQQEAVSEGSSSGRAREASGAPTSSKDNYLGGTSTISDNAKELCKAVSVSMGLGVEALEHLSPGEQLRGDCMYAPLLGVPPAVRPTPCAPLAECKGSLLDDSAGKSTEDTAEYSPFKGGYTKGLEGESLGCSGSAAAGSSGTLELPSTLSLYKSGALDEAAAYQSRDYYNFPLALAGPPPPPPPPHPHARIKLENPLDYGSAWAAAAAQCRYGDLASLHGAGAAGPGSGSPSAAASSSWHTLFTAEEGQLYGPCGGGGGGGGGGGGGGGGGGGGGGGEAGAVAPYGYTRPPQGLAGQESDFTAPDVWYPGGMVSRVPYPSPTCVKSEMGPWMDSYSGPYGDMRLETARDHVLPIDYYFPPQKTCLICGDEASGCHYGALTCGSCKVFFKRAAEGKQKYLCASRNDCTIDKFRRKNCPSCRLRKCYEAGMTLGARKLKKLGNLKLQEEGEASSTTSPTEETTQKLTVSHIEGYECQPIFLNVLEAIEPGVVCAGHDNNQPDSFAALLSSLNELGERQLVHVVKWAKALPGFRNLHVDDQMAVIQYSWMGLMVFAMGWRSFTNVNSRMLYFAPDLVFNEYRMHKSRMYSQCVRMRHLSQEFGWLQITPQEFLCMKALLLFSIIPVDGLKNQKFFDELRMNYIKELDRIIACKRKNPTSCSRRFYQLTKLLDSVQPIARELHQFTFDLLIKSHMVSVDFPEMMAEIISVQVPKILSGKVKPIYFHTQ
Source text: (§1) The AR-CALUX® cell line was created by BioDetection Systems (BDS). It can be purchased from BDS with a license (https://www.biodetectionsystems.com). The human osteosarcoma cell line U2-OS (ATCC HTB 96) was transfected with 2 constructs: pSG5-neo-hAR carrying the cDNA of a human androgen receptor (hAR) under a constitutive promoter, and, a luciferase reporter gene which is preceded by a triple tandem of AREs in front of a TATA box (3x ARE Luc). […] The AR-CALUX® cell line was obtained from the test method developer BDS. EURL ECVAM prepared a master cell bank and a large working cell bank which were tested for the absence of mycoplasma, bacteria, fungi, and yeast and for the absence of Hepatitis B and C and HIV. In addition, to verifying the authenticity of the cell line, Short Tandem Repeat (STR) profiling was carried out to confirm the test system to be U2-OS cells. […] The laboratories were requested, at the end of each part of the study (Parts 1, 2, and 3), to perform a mycoplasma test of their choice. Additional aliquots were sent to EURL ECVAM for a reanalysis of authenticity.
(§2) Subsequently, the test chemical was assessed with a prescreen run (dilution steps of 10) and simultaneously with the quantitative cytotoxicity test to determine (1) cytotoxic concentrations, (2) the response, and (3) the appropriate dose range to be tested. […] The cytotoxicity test was performed once more. Test chemicals were diluted in media and consisted of 8 serial dilutions. Each dilution was tested in triplicate.
(§3) Each experiment (run) was comprised of a maximum of 6 plates. The first plate would contain 8 serial dilutions of the reference chemical DHT (for agonism) or Flutamide (for antagonism), while the positive and negative controls were added at fixed concentrations. In addition, a solvent control was added (medium without the chemical but with DMSO 0.1%).
A. Positive when the relative induction (Yc) of the test item is ≥ 10% (REF RPC10) for two or more consecutive concentrations.

[4] = target: T1, human androgen receptor (hAR); experiment: AR-CALUX antagonist assay (medium spiked with DHT at EC50); format: cell-based
Source text: as §1, §2, §3
For the antagonist assay, the medium was supplemented with DHT at EC50 concentration (standard assay). […] Each antagonist assay was accompanied by a specificity control test carried out on the same plate.
A. Positive (competitive antagonist) when the relative induction (Yc) of the test item is ≤ 80% (REF RPC80) for two or more consecutive concentrations and […]

[5] = physchem
Description: It details the cell cultivation and seeding procedure, the preparation of the reference, control and test chemicals, the procedure for agonist testing and antagonist testing, prescreen runs, and comprehensive runs, as well as data analysis and data interpretation. This SOP also includes references to the SOPs for solubility testing and cytotoxicity testing. […] Solubility was tested both in the solvent and in media under similar circumstances as would be required during the (ant)agonist testing. The initial concentration to be tested was prescribed at 50 mg/ml. Starting from the highest soluble concentration, cytotoxicity was determined with an LDH assay. Visual checking of cytotoxicity in all wells of the plate was however also required for each run.
This included an investigation by heating, centrifugation, microscopy, and visual checking. […] For the purpose of the validation study, the labs were requested to start from 50 mg/ml as the maximal stock concentration to be tested.

| SMILES | AR-EcoScreen agonist result in words [1] | 22Rv1/MMTV/GR-KO TA agonist result in words [2] | Agonist classification per run, Lab 1 [3] | Agonist classification per run, Lab 2 [3] | Agonist classification per run, Lab 3 [3] | Agonist classification per run, Lab 4 [3] | Antagonist classification per run, Lab 1 [4] | Antagonist classification per run, Lab 2 [4] | Antagonist classification per run, Lab 3 [4] | Antagonist classification per run, Lab 4 [4] | further results |
| --- | --- | --- | --- | --- | --- | --- | --- | --- | --- | --- | --- |
| C#C[C@]1(O)CC[C@H]2[C@@H]3CCc4cc(O)ccc4[C@H]3CC[C@@]21C [17α-Ethynyl estradiol] | negative | positive |  |  |  |  |  |  |  |  |  |
| C[C@]12C=CC3=C4CCC(=O)C=C4CC[C@H]3[C@@H]1CC[C@@H]2O [17β-Trenbolone] |  |  | P P P | P P P | P P P | P P P | N N N | N N N | − N N | N N N | EC50 [3]: 0.245 nM |
| CC(C)(c1ccc(O)cc1)c1ccc(O)cc1 [Bisphenol A] |  |  |  |  |  |  |  |  |  |  | solubility ([5]; aqueous buffer, kinetic from dmso stock, Solubility in medium, Lab 1): 15 µg/mL (≈ 65.7 µM); solubility ([5]; aqueous buffer, kinetic from dmso stock, Solubility in medium, Lab 2): > 50 µg/mL; solubility ([5]; aqueous buffer, kinetic from dmso stock, Solubility in medium, Lab 3): > 50 µg/mL; solubility ([5]; aqueous buffer, kinetic from dmso stock, Solubility in medium, Lab 4): > 50 µg/mL; solubility ([5]; organic solvent or mixture, thermodynamic from solid, Solubility in DMSO, Lab 1): > 50000 µg/mL; solubility ([5]; organic solvent or mixture, thermodynamic from solid, Solubility in DMSO, Lab 2): > 50000 µg/mL; solubility ([5]; organic solvent or mixture, thermodynamic from solid, Solubility in DMSO, Lab 3): > 50000 µg/mL; solubility ([5]; organic solvent or mixture, thermodynamic from solid, Solubility in DMSO, Lab 4): > 50000 µg/mL; Agonist classification per run, Lab 1 ([3]; Lab 1, 3 runs): N N N; Agonist classification per run, Lab 2 ([3]; Lab 2, 3 runs): N N N; Agonist classification per run, Lab 3 ([3]; Lab 3, 3 runs): N N N; Agonist classification per run, Lab 4 ([3]; Lab 4, 3 runs): N N N; Antagonist classification per run, Lab 1 ([4]; Lab 1, 3 runs): P P P; Antagonist classification per run, Lab 2 ([4]; Lab 2, 3 runs): P P P; Antagonist classification per run, Lab 3 ([4]; Lab 3, 3 runs): P P P; Antagonist classification per run, Lab 4 ([4]; Lab 4, 3 runs): P P P; IC50 ([4]; logIC50 averaged over 4 labs, 3 valid runs per lab, read-out: Antagonist Overall logIC50 (converted)): 1380 nM |
| CC(C)(O)C(=O)Nc1ccc([N+](=O)[O-])c(C(F)(F)F)c1 [Hydroxyflutamide] | negative | positive | N N N | N N N | N N N | N N N | P P P | P P P | P P P | P P P | AR-CALUX agonist result in words [3]: negative |
